Where two headings read alike, the source gives them in different places.
Test: Tissue half-life (t1/2) and Cmax in plasma, brain, kidney and liver after oral administration to CD-1 mice
Assay type: in vivo, mouse
Conditions: for half-life: male, mouse
Experimental: In vivo studies were conducted to observe the effect of the compounds of the invention in the subject animal. Male CD-1 mice, body weight of 20 grams at arrival, were used in these studies. Mice were given 30 mg/kg of compound in HPMC/Tween solution or suspension via oral gavage. Plasma, brain, and liver samples were collected at time periods of 1, 2, 4, 8, and 24 hours post dosing. One mouse was used per time point. Thus, a total of 5 mice were used for each compound tested. For sample collection, mice were euthanized with CO2. Blood samples were taken by cardiac puncture and kept on ice. Brain and liver samples were collected immediately after bleeding and the samples were kept on dry ice. For calculation of tissue half-lives (t1/2s), the terminal rate constant k was estimated by the absolute value of the slope of a log-linear regression of the terminal phase of the tissue concentration-time profile. The tissue half-life t1/2 is ln(2)/k.
The following table includes t1/2 data for plasma, brain, kidney, and liver obtained after oral administration.
Tissue Half-Life Data for Various Quinazolinone Compounds (PO)

[1] = liver t1/2, 30 mg/kg oral gavage (PO), read-out: Half-Lives (h) Liver (converted)
[2] = plasma t1/2, 30 mg/kg oral gavage (PO), read-out: Half-Lives (h) Plasma (converted)

half-life [1] [h] | half-life [2] [h] | Half-Lives (h) Brain (brain t1/2, 30 mg/kg oral gavage (PO)) [h] | Half-Lives (h) Liver (liver t1/2, 30 mg/kg oral gavage (PO)) [h] | Half-Lives (h) Plasma (plasma t1/2, 30 mg/kg oral gavage (PO)) [h] | half-life (brain t1/2, 30 mg/kg oral gavage (PO), read-out: Half-Lives (h) Brain (converted)) [h] | SMILES
4.2 | 7.7 | – | – | – | – | C[C@@H]1[C@@H](N=C(Nc2ccc3c(=O)n(CCc4ccc(Cl)cc4)c(-c4c[nH]c5ccccc45)nc3c2)N2CC(=O)N[C@@H](C)C2)C[C@H]2C[C@@H]1C2(C)C [Example 236, (3S)-N-[3-[2-(4-chlorophenyl)ethyl]-2-(1H-indol-3-yl)-4-oxo-3,4-dihydroquinazolin-7-yl]-3-methyl-5-oxo-N′-[(1S,2S,3S,5R)-2,6,6-trimethylbicyclo[3.1.1]hept-3-yl]piperazine-1-carboximidamide]
– | – | 15 | 4.3 | 5.4 | – | COc1ccc(CCn2c(C#N)nc3cc(NC(=NC4C[C@H]5C[C@@H]([C@@H]4C)C5(C)C)N4CCN[C@@H](CF)C4)ccc3c2=O)c(F)c1 (stereo partly drawn) [Example 256, (3R)-N-{2-cyano-3-[2-(2-fluoro-4-methoxyphenyl)ethyl]-4-oxo-3,4-dihydroquinazolin-7-yl}-3-(fluoromethyl)-N′-[(1S,2S,5R)-26,6-trimethylbicyclo[3.1.1]hept-3-yl]piperazine-1-carboximidamide]
7.3 | 5.6 | – | – | – | 25 | COc1ccc(CCn2c(-c3ncc[nH]3)nc3cc(NC(=N[C@H]4C[C@H]5C[C@@H]([C@@H]4C)C5(C)C)N4CCN[C@@H](CF)C4)ccc3c2=O)c(F)c1 [Example 255, (3R)-N-[3-[2-(2-fluoro-4-methoxyphenyl)ethyl]-2-(1H-imidazoi-2-yl)-4-oxo-3,4-dihydroquinazolin-7-yl]-3-(fluoromethyl)-N′-[(1S,2S,3S,5R)-2,6,6-trimethylbicyclo[3.1.1]hept-3-yl]piperazine-1-carboximidamide]

From US7368453B2, “Quinazolinone compounds with reduced bioaccumulation” (Chiron Corporation, priority 2003, dated 2008)
